In ChEMBL document CHEMBL1201862, “PubChem BioAssay data set” (2004):
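1) Cells in 96-well plates. 2) Compound, 48 h, 5 concentrations. 3) Linear interpolation between surrounding doses. 4) Unreached endpoint = highest concentration. Abbreviation: GI50, concentration required for 50% inhibition of growth.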 Calls of active or inactive are those of the source. No stated cut-off is given here; in the data, active = GI50 up to about 1.1 µM and inactive = higher.

How the values were obtained:
Test in all cases: DTP human tumour cell line panel, 48 h
[1] = tested on: NCI-H23
[2] = tested on: SNB-75
[3] = tested on: BT-549
[4] = tested on: SF-295
[5] = tested on: SN12C
[6] = tested on: SR
[7] = tested on: OVCAR-3
[8] = tested on: SK-OV-3
[9] = tested on: PC-3
[10] = tested on: M14
[11] = tested on: A549
[12] = tested on: MDA-MB-435
[13] = tested on: MDA-MB-231
[14] = tested on: HCC 2998
[15] = tested on: SK-MEL-5
[16] = tested on: NCI-H522
[17] = tested on: NCI/ADR-RES
[18] = tested on: HOP-92
[19] = tested on: T47D
[20] = tested on: HL-60

With NC(CCC(=O)NC(CSC(=O)N(O)c1ccc(Cl)cc1)C(=O)NCC(=O)O)C(=O)O (configuration not stated) the GI50 [1] was > 0.5 µM (active), the GI50 [2] was > 0.5 µM (active) and the GI50 [3] was > 0.5 µM (active). The GI50 [4] was > 0.5 µM (active), the GI50 [5] was > 0.5 µM (active) and the GI50 [6] was > 0.5 µM (active). The GI50 [7] was > 0.5 µM (active), the GI50 [8] was > 0.5 µM (active) and the GI50 [9] was > 0.5 µM (active). The GI50 [10] was > 0.5 µM (active), the GI50 [11] was > 0.5 µM (active) and the GI50 [12] was > 0.5 µM (active). The GI50 [13] was > 0.5 µM (active), the GI50 [14] was > 0.5 µM (active) and the GI50 [15] was > 0.5 µM (active). For the same molecule, the GI50 [16] was > 0.5 µM (active), the GI50 [17] was > 0.5 µM (active) and the GI50 [18] was > 0.5 µM (active).

COc1ccc(OC)c([N+](=O)[O-])c1-c1nc2sc(C)cn2c1/C=N/N=C(N)N was tested, and the GI50 [1] was 22.8 µM (inactive), the GI50 [3] was 15.2 µM (inactive) and the GI50 [4] was 24.3 µM (inactive). The GI50 [5] was 23.4 µM (inactive), the GI50 [6] was < 0.01 µM (active) and the GI50 [7] was 28.9 µM (inactive). The GI50 [9] was 23.3 µM (inactive), the GI50 [10] was 32.8 µM (inactive) and the GI50 [11] was 48.6 µM (inactive). The GI50 [12] was 20.1 µM (inactive), the GI50 [13] was 23.7 µM (inactive) and the GI50 [14] was 20.6 µM (inactive). For the same molecule, the GI50 [15] was 18.7 µM (inactive), the GI50 [16] was 20 µM (inactive) and the GI50 [17] was > 100 µM (inactive). For the same molecule, the GI50 [18] was 17.5 µM (inactive).

With CSc1cc(Cl)c(C)cc1S(=O)(=O)NC(=O)NNc1ccc(F)c(Cl)c1 the GI50 [2] was > 100 µM (inactive), the GI50 [4] was > 100 µM (inactive) and the GI50 [19] was > 100 µM (inactive). The GI50 [5] was > 100 µM (inactive), the GI50 [6] was 61 µM (inactive) and the GI50 [7] was > 100 µM (inactive). For the same molecule, the GI50 [8] was > 100 µM (inactive), the GI50 [9] was > 100 µM (inactive) and the GI50 [10] was > 100 µM (inactive). For the same molecule, the GI50 [11] was > 100 µM (inactive), the GI50 [12] was > 100 µM (inactive) and the GI50 [13] was > 100 µM (inactive). For the same molecule, the GI50 [14] was > 100 µM (inactive), the GI50 [15] was > 100 µM (inactive) and the GI50 [16] was > 100 µM (inactive). For the same molecule, the GI50 [17] was > 100 µM (inactive).

In the case of CC(Cn1c(=O)oc2ccccc21)N(C)C (configuration not stated), the GI50 [1] is reported as > 100 µM (inactive), the GI50 [2] is reported as > 100 µM (inactive) and the GI50 [3] is reported as > 100 µM (inactive). The GI50 [4] was > 100 µM (inactive), the GI50 [5] was > 100 µM (inactive) and the GI50 [6] was > 100 µM (inactive). The GI50 [7] was > 100 µM (inactive), the GI50 [8] was > 100 µM (inactive) and the GI50 [9] was > 100 µM (inactive). For the same molecule, the GI50 [10] was > 100 µM (inactive), the GI50 [12] was > 100 µM (inactive) and the GI50 [13] was > 100 µM (inactive). For the same molecule, the GI50 [20] was > 100 µM (inactive), the GI50 [15] was > 100 µM (inactive) and the GI50 [17] was > 100 µM (inactive).

CN(C)c1ccc(/C(Br)=C2\OC(=O)c3ccccc32)cc1 was tested, and the GI50 [1] was > 100 µM (inactive), the GI50 [2] was 80.7 µM (inactive) and the GI50 [4] was 76.2 µM (inactive). For the same molecule, the GI50 [19] was 11.3 µM (inactive), the GI50 [5] was > 100 µM (inactive) and the GI50 [6] was 34.8 µM (inactive). For the same molecule, the GI50 [8] was > 100 µM (inactive), the GI50 [9] was > 100 µM (inactive) and the GI50 [10] was > 100 µM (inactive). For the same molecule, the GI50 [11] was > 100 µM (inactive), the GI50 [12] was 36.1 µM (inactive) and the GI50 [13] was > 100 µM (inactive). The GI50 [14] was > 100 µM (inactive), the GI50 [20] was 34 µM (inactive) and the GI50 [15] was 77.6 µM (inactive). For the same molecule, the GI50 [17] was 31.8 µM (inactive).

OCCN(C1=NCCN1)/[N+](=C/c1ccc(Cl)cc1)[CH-]c1ccc(Cl)cc1 was tested, and the GI50 [1] was > 100 µM (inactive), the GI50 [2] was > 100 µM (inactive) and the GI50 [3] was > 100 µM (inactive). The GI50 [4] was > 100 µM (inactive), the GI50 [5] was > 100 µM (inactive) and the GI50 [6] was 99.1 µM (inactive). For the same molecule, the GI50 [7] was > 100 µM (inactive), the GI50 [8] was > 100 µM (inactive) and the GI50 [9] was 62.5 µM (inactive). The GI50 [10] was 83.9 µM (inactive), the GI50 [11] was > 100 µM (inactive) and the GI50 [12] was > 100 µM (inactive). The GI50 [13] was > 100 µM (inactive), the GI50 [14] was 29.4 µM (inactive) and the GI50 [15] was 23.8 µM (inactive). The GI50 [16] was 84.3 µM (inactive) and the GI50 [17] was > 100 µM (inactive).

For Cc1cc(C)n(C(C)(C(=O)Cc2ccccc2)n2nc(C)cc2C)n1, the GI50 [1] was > 100 µM (inactive), the GI50 [4] was > 100 µM (inactive) and the GI50 [19] was > 100 µM (inactive). The GI50 [5] was > 100 µM (inactive), the GI50 [6] was > 100 µM (inactive) and the GI50 [7] was > 100 µM (inactive). For the same molecule, the GI50 [8] was > 100 µM (inactive), the GI50 [9] was > 100 µM (inactive) and the GI50 [10] was > 100 µM (inactive). The GI50 [11] was > 100 µM (inactive), the GI50 [12] was > 100 µM (inactive) and the GI50 [13] was > 100 µM (inactive). The GI50 [14] was > 100 µM (inactive), the GI50 [20] was > 100 µM (inactive) and the GI50 [15] was > 100 µM (inactive). The GI50 [16] was > 100 µM (inactive), the GI50 [17] was > 100 µM (inactive) and the GI50 [18] was > 100 µM (inactive).

Cc1[nH]c2ccccc2c1C1=CC(=O)N(c2ccccc2)C1=O was tested, and the GI50 [1] was 12.1 µM (inactive), the GI50 [3] was 5.31 µM (inactive) and the GI50 [4] was 26.7 µM (inactive). For the same molecule, the GI50 [5] was 13.8 µM (inactive), the GI50 [7] was 9.53 µM (inactive) and the GI50 [8] was 34.3 µM (inactive). For the same molecule, the GI50 [9] was 11.9 µM (inactive), the GI50 [10] was 13.6 µM (inactive) and the GI50 [11] was 22.5 µM (inactive). The GI50 [12] was 15.6 µM (inactive), the GI50 [13] was 28.2 µM (inactive) and the GI50 [14] was 1.75 µM (inactive). For the same molecule, the GI50 [20] was 10.7 µM (inactive), the GI50 [15] was 8 µM (inactive) and the GI50 [17] was 20.2 µM (inactive). For the same molecule, the GI50 [18] was 7.74 µM (inactive).
